Results taken from patent publication US12491230B2, “Peptides for use in promoting transport of glucose” (NURITAS LIMITED, priority 2015, dated 2025).
No end group written: not given here.

Key:
L6-GLUT4myc cells = experiment: Cell viability / cell death seen in the GLUT4 translocation experiment; format: cell-based, rat; settings: synthetic peptide 200 μM, 3 hours
Procedure: (§1) L6-GLUT4myc cells were serum-starved for three hours prior to incubation with 100 nM of insulin for 30 mins, or 200, 20, 2.0 and 0.2 μM of SP, and 2, 1, 0.5 and 0.25 mg/ml of peptide composition for 3 hours respectively. A 3 hour incubation period was selected based on previous findings identifying that incubation with branch chain amino acid containing di-peptides for 3 hours increases glucose uptake in L6 myotubes 1. Treatments were staggered in order to determine GLUT4myc translocation at the same time point.

GLUT4 = experiment: Measurement of GLUT4myc translocation in L6 myotubes (antibody-coupled colorimetric assay); format: cell-based, rat; settings: L6-GLUT4myc cells
Excerpt: We determined the effect of six synthetic peptides (SP1-6) and four peptide compositions on in vitro GLUT4 translocation using the L6 rat skeletal muscle cell line. A clone of the L6 cell line containing overexpression of GLUT4 tagged with a c-myc epitope (courtesy of Prof. Amira Klip, Hospital for Sick Children, Toronto) was used to investigate the efficacy of each synthetic peptide and peptide composition for effects on GLUT4 translocation in a dose-response design.
L6-GLUT4myc cells were grown in 10% FBS and 2 μg/ml blasticidin. Cells were grown for 48-72 hours before being seeded in 24-well plates at 15,000 cells per well in 2% FBS and allowed to differentiate for 6 to 8 days prior to experimentation.
as §1
The quantity of myc-tagged GLUT4 at the cell surface was measured by antibody-coupled colorimetric assay. Briefly, after incubation with either insulin for 30 mins or synthetic peptide or peptide composition for 3 hours respectively, L6-GLUT4myc cells were fixed via incubation with 3% paraformaldehyde (PFA). A 0.1 M glycine solution was then added to quench PFA and cells were blocked with 5% goat serum. The myotube monolayer was exposed to anti-myc antibody and then incubated with peroxidase conjugated donkey anti-mouse IgG. 1 mL of o-phenylenediamine dihydrochloride (OPD) reagent was added to each well and this reaction was stopped by adding 250 μl/well of 3 M HCL. To determine GLUT4 translocation to cell surface, a measured aliquot of each condition was determined spectrophotometrically on a plate reader using absorbance at 492 nm. […]

## DTFYNAAWDPSNR [SP1, DTFYNAAWDPSNR]
L6-GLUT4myc cells
  cell viability: poor cell viability

## VLDLAIPVNRPGQL [SP2]
GLUT4; dose-response design
  stimulatory effect on skeletal muscle GLUT4 translocation (conclusion of the experiment): displayed a trend for stimulatory effect
GLUT4; synthetic peptide 0.2-2 μM, 3 hours
  GLUT4 translocation: trend for SP2 to increase GLUT4 translocation

## insulin [reference compound]
GLUT4; 100 nM insulin, 30 mins
  average increase in cell surface GLUT4 translocation compared to untreated control: 1.72 fold
